Results: US10952433B2, “Solutions for enhancing the effectiveness of insecticides and fungicides on living plants and related methods” (priority 2015, dated 2021)
Read-outs that look alike come from different tables or passages of the source.

Legend:
[1] = test system: Gypsy Moth Catepillar; experiment: Gypsy moth caterpillar damage to white oak seedlings after hand spray (Table 5); assay type: in vivo, gypsy moth (on white oak seedlings)
Procedure: The particular solutions tested were applied to a stem of the white oak seedling using a low volume hand spray and spraying 20 milliliters per seedling. A total of 20 seedlings were tested. […] At permethrin concentration of 50 ppm, the damage after one month was 30% and with 100 ppm used alone, the damage was 0. When buffered amine oxide system No. 3 was employed in concentrations of 400:1 with 10 ppm of the insecticide, the gypsy moth caterpillar damage was 10% and when a concentration of 200:1 was employed with 10 ppm insecticide, the damage was 0.

[2] = test system: lepidopteran larvae: cabbage loopers (Trichoplusia ni) and beet armyworms (Spodoptera exigua); assay type: in vivo; settings: plants
How it was run: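 Romaine lettuce plants 2-3 inches tall were sprayed with 10 mL of insecticide (ppm) with buffer, amine oxide or buffered amine oxide at 200:1, then infested with 15 T. ni and 15 S. exigua larvae (5th-6th instar) per container. Leaf surface damage scored visually in 5% increments after 24 h.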

[3] = test system: lepidopteran larvae: cabbage loopers (Trichoplusia ni) and beet armyworms (Spodoptera exigua); assay type: in vivo; settings: leaf discs
How it was run: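 Romaine lettuce leaf discs (⅝ inch) dipped about one second in treatment solution and infested with four cabbage loopers and four beet armyworms (3rd-4th instar) per container. Held dark at 15 °C, 80% RH; percent disc-area damage scored visually in 5% increments at 24, 48 and 72 h.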

[4] = insecticide + CO3 buffer 200:1, no amine oxide, PPM: Chlorantranilopril 60, Acephate 70, Methoxyfenozide 100, Spinosad 30, Permethrin 10, Indoxacarb 50
[5] = insecticide + PO4 buffer 200:1, no amine oxide, PPM: Chlorantranilopril 60, Acephate 70, Methoxyfenozide 100, Spinosad 30, Permethrin 10, Indoxacarb 50
[6] = insecticide + amine oxide 12, no buffer, 200:1, PPM: Chlorantranilopril 60, Acephate 70, Methoxyfenozide 100, Spinosad 30, Permethrin 10, Indoxacarb 50
[7] = insecticide + amine oxide 1218, no buffer, 200:1, PPM: Chlorantranilopril 60, Acephate 70, Methoxyfenozide 100, Spinosad 30, Permethrin 10, Indoxacarb 50
[8] = insecticide + buffered amine oxide system CO3, 12, 200:1, PPM: Chlorantranilopril 60, Acephate 70, Methoxyfenozide 100, Spinosad 30, Permethrin 10, Indoxacarb 50
[9] = insecticide + buffered amine oxide system CO3, 1218, 200:1, PPM: Chlorantranilopril 60, Acephate 70, Methoxyfenozide 100, Spinosad 30, Permethrin 10, Indoxacarb 50
[10] = insecticide + buffered amine oxide system PO4, 12, 200:1, PPM: Chlorantranilopril 60, Acephate 70, Methoxyfenozide 100, Spinosad 30, Permethrin 10, Indoxacarb 50
[11] = insecticide + buffered amine oxide system PO4, 1218, 200:1, PPM: Chlorantranilopril 60, Acephate 70, Methoxyfenozide 100, Spinosad 30, Permethrin 10, Indoxacarb 50
[12] = insecticide alone, highest, PPM: Chlorantranilopril 120, Acephate 140, Methoxyfenozide 200, Spinosad 60, Permethrin 20, Indoxacarb 100
[13] = insecticide alone, increased, PPM: Chlorantranilopril 90, Acephate 105, Methoxyfenozide 150, Spinosad 45, Permethrin 15, Indoxacarb 75
[14] = insecticide alone, PPM: Chlorantranilopril 60, Acephate 70, Methoxyfenozide 100, Spinosad 30, Permethrin 10, Indoxacarb 50

CC1(C)C(C=C(Cl)Cl)C1C(=O)OCc1cccc(Oc2ccccc2)c1 (stereo not drawn) [Permethrin]
Percent Gypsy Moth Catepillar Damage to White Oak 1 Month After Application ([1]; Permethrin 10 PPM + buffered amine oxide system 3, amine oxide 12, 200:1): 0% | Percent Gypsy Moth Catepillar Damage to White Oak 1 Month After Application ([1]; Permethrin 10 PPM + buffered amine oxide system 3, amine oxide 12, 400:1): 10% | Percent Gypsy Moth Catepillar Damage to White Oak 1 Month After Application ([1]; Permethrin 10 PPM + buffered amine oxide system 4, amine oxide 12, 200:1): 0% | Percent Gypsy Moth Catepillar Damage to White Oak 1 Month After Application ([1]; Permethrin 10 PPM + buffered amine oxide system 4, amine oxide 12, 400:1): 10% | Percent Gypsy Moth Catepillar Damage to White Oak 1 Month After Application ([1]; Permethrin 10 PPM alone): 80% | Percent Gypsy Moth Catepillar Damage to White Oak 1 Month After Application ([1]; Permethrin 50 PPM alone): 30% | Percent Gypsy Moth Catepillar Damage to White Oak 1 Month After Application ([1]; Permethrin 100 PPM alone): 0% | Percent Lepidopteran Damage to Romaine Lettuce 24 hr [2, 4]: 80.5% | Percent Lepidopteran Damage to Romaine Lettuce 24 hr [2, 5]: 83.0% | Percent Lepidopteran Damage to Romaine Lettuce 24 hr [2, 6]: 77.5% | Percent Lepidopteran Damage to Romaine Lettuce 24 hr [2, 7]: 72.0% | Percent Lepidopteran Damage to Romaine Lettuce 24 hr [2, 8]: 22.5% | Percent Lepidopteran Damage to Romaine Lettuce 24 hr [2, 9]: 28.0% | Percent Lepidopteran Damage to Romaine Lettuce 24 hr [2, 10]: 24.0% | Percent Lepidopteran Damage to Romaine Lettuce 24 hr [2, 11]: 21.0% | Percent Lepidopteran Damage to Romaine Lettuce 24 hr [2, 12]: 90.0% | Percent Lepidopteran Damage to Romaine Lettuce 24 hr [2, 13]: 78.0% | Percent Lepidopteran Damage to Romaine Lettuce 24 hr [2, 14]: 77.0% | Percent Lepidopteran Damage to Romaine Lettuce 24 hr [3, 4]: 53.5% | Percent Lepidopteran Damage to Romaine Lettuce 24 hr [3, 5]: 28.5% | Percent Lepidopteran Damage to Romaine Lettuce 24 hr [3, 6]: 17.0% | Percent Lepidopteran Damage to Romaine Lettuce 24 hr [3, 7]: 24.0% | Percent Lepidopteran Damage to Romaine Lettuce 24 hr [3, 8]: 23.5% | Percent Lepidopteran Damage to Romaine Lettuce 24 hr [3, 9]: 2.0% | Percent Lepidopteran Damage to Romaine Lettuce 24 hr [3, 10]: 3.0% | Percent Lepidopteran Damage to Romaine Lettuce 24 hr [3, 11]: 1.5% | Percent Lepidopteran Damage to Romaine Lettuce 24 hr [3, 12]: 1.5% | Percent Lepidopteran Damage to Romaine Lettuce 24 hr [3, 13]: 0.0% | Percent Lepidopteran Damage to Romaine Lettuce 24 hr [3, 14]: 85.5% | Percent Lepidopteran Damage to Romaine Lettuce 48 hr [3, 4]: 97.5% | Percent Lepidopteran Damage to Romaine Lettuce 48 hr [3, 5]: 79.0% | Percent Lepidopteran Damage to Romaine Lettuce 48 hr [3, 6]: 60.0% | Percent Lepidopteran Damage to Romaine Lettuce 48 hr [3, 7]: 95.0% | Percent Lepidopteran Damage to Romaine Lettuce 48 hr [3, 8]: 67.0% | Percent Lepidopteran Damage to Romaine Lettuce 48 hr [3, 9]: 4.5% | Percent Lepidopteran Damage to Romaine Lettuce 48 hr [3, 10]: 10.5% | Percent Lepidopteran Damage to Romaine Lettuce 48 hr [3, 11]: 3.0% | Percent Lepidopteran Damage to Romaine Lettuce 48 hr [3, 12]: 4.0% | Percent Lepidopteran Damage to Romaine Lettuce 48 hr [3, 13]: 0.5% | Percent Lepidopteran Damage to Romaine Lettuce 48 hr [3, 14]: 100.0% | Percent Lepidopteran Damage to Romaine Lettuce 72 hr [3, 4]: 100.0% | Percent Lepidopteran Damage to Romaine Lettuce 72 hr [3, 5]: 100.0% | Percent Lepidopteran Damage to Romaine Lettuce 72 hr [3, 6]: 89.0% | Percent Lepidopteran Damage to Romaine Lettuce 72 hr [3, 7]: 100.0% | Percent Lepidopteran Damage to Romaine Lettuce 72 hr [3, 8]: 91.0% | Percent Lepidopteran Damage to Romaine Lettuce 72 hr [3, 9]: 5.0% | Percent Lepidopteran Damage to Romaine Lettuce 72 hr [3, 10]: 21.0% | Percent Lepidopteran Damage to Romaine Lettuce 72 hr [3, 11]: 3.0% | Percent Lepidopteran Damage to Romaine Lettuce 72 hr [3, 12]: 4.5% | Percent Lepidopteran Damage to Romaine Lettuce 72 hr [3, 13]: 0.5% | Percent Lepidopteran Damage to Romaine Lettuce 72 hr [3, 14]: 100.0%
